According to US11578055B2, “Triazacyclododecansulfonamide (“TCD”)-based protein secretion inhibitors” (KEZAR LIFE SCIENCES, priority 2018, dated 2023):
Where two headings read alike, the source gives them in different places.

Columns and labels:
[1] = system: PD1 signal sequence plus 10 amino acids fused to Gaussia Luciferase (PD1-ss+10aa/Gaussia Luciferase); experiment: Dox Induced PD1-ss-Gluc Assay; type: cell-based; settings: 24 hr, read-out: 24 hr Dox Inducible PD1ssGluc 293FRT/TO: Mean IC50
How it was run: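 Stable Flp-In 293 T-REx line expressing the fusion under tetracycline-inducible control, plated the day before assay. Compound dilutions added with doxycycline and incubated at 37 °C, 5% CO2; unspecified stereocentres mean data refer to stereoisomer mixtures.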

[2] = system: full length TNFα (amino acids 1-233) fused to Gaussia Luciferase; experiment: Dox Induced TNFα-FL-Gluc Assay; type: cell-based; settings: 24 hr, read-out: 24 hr Dox Inducible TNFaFLGluc 293FRT/TO: Mean IC50
How it was run: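 Stable Flp-In 293 T-REx line expressing doxycycline-inducible full-length TNFα fused to Gaussia luciferase; cells plated the day before, then treated with compound dilutions in doxycycline-containing medium at 37° C, 5% CO2. Unspecified stereocentres mean stereoisomer mixtures were tested.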

[3] = system: full length IL-2 (amino acids 1-153) fused to Gaussia Luciferase; experiment: Dox Induced IL2-FL-Gluc Assay; type: cell-based; settings: 24 hr, read-out: 24 hr Dox Inducible IL2FLGluc 293FRT/TO: Mean IC50
How it was run: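 Flp-In 293 T-REx stable line expressing full-length IL-2 (aa 1-153) with C-terminal Gaussia luciferase fusion under doxycycline-inducible control. Cells plated the day before; compound dilutions added in DMSO/media containing doxycycline, incubated at 37° C, 5% CO2.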

[4] = system: multiple myeloma cell line NCl-H929; experiment: H929 Cell Viability Assay; type: cell-based, human; settings: Homo sapiens, NCI-H929, 48 h
How it was run: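 NCI-H929 myeloma cells in RPMI 1640 with 10% FBS were treated with compound dilutions for 48 h at 37 °C, and viability was then read by CellTiter-Glo luminescence. Compounds drawn without stereochemistry were tested as stereoisomer mixtures.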

[5] = In Vitro Microsome Stability Assay (human); type: in vitro ADME
How it was run: (§1)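 The value reported is the percentage of parent left after 30 min, calculated from analyte/IS peak-area ratios relative to time zero by LC-MS/MS. Incubations ran at 37° C in 0.1 M potassium phosphate with NADPH and microsomes (stock 20 mg/mL), with compound added from a 0.25 mM DMSO stock. Acetonitrile containing IS stopped the reactions.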

[6] = In Vitro Microsome Stability Assay (mouse); type: in vitro ADME
How it was run: as §1

[7] = In Vitro Microsome Stability Assay (rat); type: in vitro ADME
How it was run: as §1

[8] = In Vitro Microsome Stability Assay (monkey); type: in vitro ADME
How it was run: as §1

GM-CSF = experiment: Human PBMC Cytokine Assay: GM-CSF; type: cell-based; settings: anti-CD3/CD28 stimulation, 24 hours
Procedure: (§2) Human PBMC were freshly isolated from whole blood collections of 3 normal donors utilizing density gradient centrifugation followed by red blood cell lysis. PBMC from each donor were assayed separately. Cells were suspended in RPMI 1640 media supplemented with 5% fetal bovine serum, 2 mM L-glutamine, 10 mM HEPES, and 1× penicillin/streptomycin. PBMC were seeded at 200,000 cells/well in 96-well round-bottom plates either without stimulation or with stimulation by lipopolysaccharide (LPS, 1 μg/mL) or antibodies against human CD3 (plate-bound, 2 μg/mL) and human CD28 (soluble, 2 μg/mL). Serial dilutions of compound in DMSO/media were simultaneously added and PBMC were incubated at 37° C., 5% CO2 for 24 hours. After 24 hours, plates were centrifuged and half of the supernatant volume removed for cytokine analysis by electrochemiluminescent immunoassay (U-PLEX® Biomarker Multiplex, Meso Scale Discovery). For viability analysis, CellTiter-Glo® (Promega) was added to the remaining material in each well and quantified via luminescent plate reader.

IFNγ = experiment: Human PBMC Cytokine Assay: IFNγ; type: cell-based; settings: anti-CD3/CD28 stimulation, 24 hours
Procedure: as §2

IL-1β = experiment: Human PBMC Cytokine Assay: IL-1β; type: cell-based; settings: LPS stimulation, 24 hours
Procedure: as §2

IL-2 = experiment: Human PBMC Cytokine Assay: IL-2; type: cell-based; settings: anti-CD3/CD28 stimulation, 24 hours
Procedure: as §2

IL-6 = experiment: Human PBMC Cytokine Assay: IL-6; type: cell-based; settings: LPS stimulation, 24 hours
Procedure: as §2

TNFα = experiment: Human PBMC Cytokine Assay: TNFα; type: cell-based; settings: anti-CD3/CD28 stimulation, 24 hours
Procedure: as §2

[9] = human liver microsomes, 30 min w/ NADPH
[10] = mouse liver microsomes, 30 min w/ NADPH
[11] = rat liver microsomes, 30 min w/ NADPH
[12] = monkey liver microsomes, 30 min w/ NADPH

**Q.** For `C[C@H]1CN(S(=O)(=O)c2ccc(N(C)C)cc2)CCCN(CC2CCCCC2)CCCN(S(=O)(=O)N2CCc3cc(Cl)ccc3C2)C1` [A87], which IC50 ([1]; 293FRT/TO) is on record?
**A.** 19.1 nM

**Q.** And the IC50 ([2]; 293FRT/TO)?
**A.** 492 nM

**Q.** What about the IC50 ([3]; 293FRT/TO) of the same compound?
**A.** 50.2 nM

**Q.** And the EC50 ([4]; H929, read-out: 48 hr H929 Viability Celltiter-Glo: Mean EC50)?
**A.** 224 nM

**Q.** And the “Liver Microsome Stability-% Left after 30 min w/ NADPH (%) Human” value (“Liver Microsome Stability-% Left … (%) Human” for short) ([5]; human, 30 min, NADPH)?
**A.** 39.7%

**Q.** What about the “Liver Microsome Stability-% Left after 30 min w/ NADPH (%) Mouse” value (“Liver Microsome Stability-% Left … (%) Mouse” for short) ([6]; mouse, 30 min, NADPH) of the same compound?
**A.** 49.6%

**Q.** And the “Liver Microsome Stability-% Left after 30 min w/ NADPH (%) Rat” value (“Liver Microsome Stability-% Left … (%) Rat” for short) ([7]; rat, 30 min, NADPH)?
**A.** 43.6%

**Q.** And the “Liver Microsome Stability-% Left after 30 min w/ NADPH (%) Monkey” value (shortened to “Liver Microsome Stability-% Left … (%) Monkey”) ([8]; monkey, 30 min, NADPH)?
**A.** 32.7%

**Q.** What about the IC50 (GM-CSF) of the same compound?
**A.** 165 nM

**Q.** What about the IC50 (IFNγ) of the same compound?
**A.** 152 nM

**Q.** And the IC50 (IL-1β)?
**A.** > 25000 nM

**Q.** What about the IC50 (IL-2) of the same compound?
**A.** 31 nM

**Q.** What about the IC50 (IL-6) of the same compound?
**A.** 61 nM

**Q.** And the IC50 (TNFα)?
**A.** 82 nM

**Q.** With `COc1cc(F)ccc1N1CCN(S(=O)(=O)N2CCCN(CC3CCCCC3)CCCN(S(=O)(=O)c3ccc(N(C)C)cc3)C[C@H](C)C2)CC1` [A137] as the compound, how does the IC50 ([1]; Dox inducible, 293FRT/TO cells) read?
**A.** 8.3 nM

**Q.** And the IC50 ([2]; Dox inducible, 293FRT/TO cells)?
**A.** 191 nM

**Q.** And the IC50 ([3]; Dox inducible, 293FRT/TO cells)?
**A.** 21.4 nM

**Q.** What about the EC50 ([4]; H929, Celltiter-Glo) of the same compound?
**A.** 282 nM

**Q.** What about the “Liver Microsome Stability-% Left … (%) Human” value [5, 9] of the same compound?
**A.** 48.8%

**Q.** And the “Liver Microsome Stability-% Left … (%) Mouse” value [6, 10]?
**A.** 28%

**Q.** And the “Liver Microsome Stability-% Left … (%) Rat” value [7, 11]?
**A.** 31.6%

**Q.** What about the “Liver Microsome Stability-% Left … (%) Monkey” value [8, 12] of the same compound?
**A.** 14.2%

**Q.** What about the IC50 (GM-CSF) of the same compound?
**A.** 25 nM

**Q.** And the IC50 (IFNγ)?
**A.** 21 nM

**Q.** What about the IC50 (IL-1β) of the same compound?
**A.** > 25000 nM

**Q.** And the IC50 (IL-2)?
**A.** 8 nM

**Q.** And the IC50 (IL-6)?
**A.** 12 nM

**Q.** What about the IC50 (TNFα) of the same compound?
**A.** 17 nM

**Q.** What does the source list for `COc1cc(F)ccc1N1CCN(S(=O)(=O)N2CCCN(CC3CCCCC3)CCCN(S(=O)(=O)c3ccc(N(C)C)cc3)C[C@H](C)C2)C[C@H]1C` [A177, 4-{[(3S)-9-(cyclohexylmethyl)-5-{[(3 R)-4-(4-fluoro-2-methoxyphenyl)-3-methylpiperazin-1-yl]sulfonyl}-3-methyl-1,5,9-triazacyclododecan-1-yl]sulfonyl}-N,N-dimethylaniline]?
**A.** IC50 ([1]; Dox inducible, 293FRT/TO cells): 4.95 nM; IC50 ([2]; Dox inducible, 293FRT/TO cells): 155 nM; IC50 ([3]; Dox inducible, 293FRT/TO cells): 12.6 nM; EC50 ([4]; H929, Celltiter-Glo): 180 nM; Liver Microsome Stability-% Left after 30 min w/ NADPH (%) Human [5, 9]: 13.7%; Liver Microsome Stability-% Left after 30 min w/ NADPH (%) Mouse [6, 10]: 11.6%; Liver Microsome Stability-% Left after 30 min w/ NADPH (%) Rat [7, 11]: 14.5%; Liver Microsome Stability-% Left after 30 min w/ NADPH (%) Monkey [8, 12]: 2.8%; IC50 (GM-CSF): 19 nM; IC50 (IFNγ): 19 nM; IC50 (IL-1β): > 25000 nM; IC50 (IL-2): 10 nM; IC50 (IL-6): 24 nM; IC50 (TNFα): 13 nM

**Q.** Which IC50 ([1]; Dox inducible, 293FRT/TO cells) does the source give for `C[C@H]1CN(S(=O)(=O)c2ccc(N(C)C)cc2)CCCN(CC2CCCCC2)CCCN(S(=O)(=O)N2CCc3c(C#N)cccc3C2)C1` [A151, 2-{[(3S)-9-(cyclohexylmethyl)-5-[4-(dimethylamino)benzenesulfonyl]-3-methyl-1,5,9-triazacyclododecan-1-yl]sulfonyl}-1,2,3,4-tetrahydroisoquinoline-5-carbonitrile] here?
**A.** 153 nM

**Q.** And the IC50 ([2]; Dox inducible, 293FRT/TO cells)?
**A.** 1220 nM

**Q.** And the IC50 ([3]; Dox inducible, 293FRT/TO cells)?
**A.** 306 nM

**Q.** What about the EC50 ([4]; H929, Celltiter-Glo) of the same compound?
**A.** 2710 nM

**Q.** What about the “Liver Microsome Stability-% Left … (%) Human” value [5, 9] of the same compound?
**A.** 4.28%

**Q.** And the “Liver Microsome Stability-% Left … (%) Mouse” value [6, 10]?
**A.** 4.55%

**Q.** And the “Liver Microsome Stability-% Left … (%) Rat” value [7, 11]?
**A.** 4.2%

**Q.** What about the “Liver Microsome Stability-% Left … (%) Monkey” value [8, 12] of the same compound?
**A.** 3.98%
